Entries after “also recorded” stand apart in the source; their conditions may differ.
What was measured:
4T1 cells = assay: L-lactate accumulation assay, 4T1; conditions: MCT1-expressing 4T1 cells; 24 h
Description: To test this, we assayed intracellular lactate accumulation following C5 treatment in MCT1-expressing 4T1 cells and MCT4-expressing MDA-MB-231 cells using commercially available lactate kits.
On the third day, media were aspirated, and wells were rinsed twice with cold PBS. […] At this time, 1 ml of PBS was added to each well and underwent freeze–thaw lysis at −80 °C. Media in each well were aliquoted and centrifuged (16,000g, 10 min, 4 °C). The lysate supernatant was then aliquoted, and pellet was discarded. L-lactate concentration was then determined using Eton Biosciences L-Lactate assay kit 1 by mixing lysate sample with L-lactate assay solution in duplicate, incubating for 30 min (37 °C, 0% CO2) and measuring absorbance of enzyme produced INT formazan at 490 nm using a BioTek Synergy 2 plate reader. Absorbance values were compared with an L-lactate standard curve concomitantly ran with test samples to determine lactate concentration in each sample. Lactate concentrations were normalized to total protein using a Pierce Bicinchoninic Acid Protein Assay Kit.

[1] = General tolerability dose escalation, intraperitoneal, CD-1 mice; type: in vivo
Description: After obtaining PK parameters of C5, we carried out a general tolerability dose escalation study via intraperitoneal injection to determine a maximum tolerated dose for future tumor efficacy studies (Fig. S3B). […] In CD-1 mice, dosing began at 5 mg/kg for 7 days. After 7 days, dosing was increased to 6 mg/kg; however, at this dose, there were acute respiratory effects and lethargy observed in the mice deeming it a toxic dose.
Dosing was increased to 6 mg/kg on day 8, but significant acute respiratory effects were observed indicating toxicity. Due to this acute effect, the study was terminated, and all mice were euthanized. The study was carried out following Institutional Animal Care and Use Committee protocol 2211-40546A.

[2] = test system: succinate-driven respiration in 4T1 cells; assay: Seahorse succinate-driven respiration in permeabilized 4T1 cells; type: cell-based, murine; conditions: candidate compounds 1 μM
Text: (§1) Although our initial experiments and previous literature illustrate the ability of the candidate compounds to inhibit Pyr-driven respiration, we sought to investigate the ability of candidate compounds to inhibit respiration fueled by other metabolic substrates, glutamate and succinate (Fig. 2). Glutamate, similar to Pyr oxidation, results in NADH equivalents that fuel complex I-mediated respiration, and succinate metabolism offers FADH2 for electrons in complex II-driven respiratory processes. […] To further validate the mode of action of the candidate compounds, a series of similar Seahorse experiments were employed (Fig. 2, A–C). In these experiments, 4T1 cells were first permeabilized and were then offered metabolic substrates Pyr (Pyr/Mal; Fig. 2A), glutamate (Glu/Mal, Fig. 2B), or succinate (Fig. 2C), and the resulting OCR was observed. As described previously, Mal and DCA were included in the substrate milieu of glutamate respiration experiments. […] To validate that inhibition of Pyr respiration is due to mitochondrial Pyr uptake and not other Pyr-processing enzymes (i.e., Pyr dehydrogenase), a parallel experiment using methyl pyruvate (MePyr) was employed (Fig. 2, E and F). MePyr is permeable to the mitochondrial membranes, where in the matrix, mitochondrial esterase hydrolysis activity provides Pyr.
(§2) Permeabilized cell assays were performed using rPFO as described previously. 4T1 cells were seeded (20,000 cells/well) onto Seahorse XFe96 well plates and incubated overnight in growth media at 37 °C and 5% CO2 for adherence. On the day of the assay, growth media were aspirated and replaced with MAS buffer (70 mM sucrose, 220 mM mannitol, 10 mM potassium phosphate monobasic, 5 mM magnesium chloride, 2 mM Hepes, and 1 mM EGTA) after 3X rinse of growth media to remove serum and endogenous metabolic substrates, and incubated at 37 °C in a non-CO2 incubator. Respective inhibitor and substrate milieu's were prepared in MAS buffer for port injections A–D at 8X, 9X, 10X, and 11X the target cell concentrations to account for intrinsic dilution factor of in situ injections of each port. […] Final substrate concentrations for specific tests were as follows: (5 mM Pyr , 0.5 mM Mal, 2 mM DCA; 10 mM glutamate, 0.5 mM Mal, 2 mM DCA; 10 mM succinate, 2 μM rotenone; 20 mM methyl Pyr, 5 mM Pyr, 0.5 mM Mal, and 2 mM DCA). ATP rate assays and mitochondrial stress tests were performed according to the manufacturer's (Agilent) instructions.

67NR tumor = assay: Tumor efficacy study in a 67NR syngraft; conditions: 14-day treatment
MDA-MB-231 [3] = assay: Sulforhodamine B cell proliferation inhibition assay, MDA-MB-231; type: cell-based; conditions: Homo sapiens, 72 h
Description: (§3) Cells were seeded (3 × 10^4 cells/well) in 48-well plates and incubated overnight (37 °C, 5% CO2). Test compounds were then exposed to cells in duplicate in serial dilution fashion and were incubated for an additional 72 h (37 °C, 5% CO2). Media were then aspirated, and cells were washed three times with cold PBS and left overnight to dry fix. […] Dyed cells were then lysed with Tris (10 mM, pH 10), and absorbance readings were recorded at 540 nm of each well. Treatment absorbances are taken as percentages of the average untreated absorbances and plotted against log(concentration) in GraphPad Prism 10 to generate effective concentration values where 50% of the cells are not proliferating (EC50).

[4] = test system: MPC1 and MPC2 KO 4T1 cells; assay: Pyr-driven respiration in CRISPR-Cas9 MPC1/MPC2 KO 4T1 cells; conditions: permeabilized MPC1/MPC2 KO 4T1 cells, FCCP stimulated
in vivo = conditions: BALB/c, mouse; for bioavailability / Vd / clearance: plasma; for half-life: in vivo
Description: IV dosing allows for analysis under the assumption of total systemic absorption (Fig. S3A).
In a contract organization Medicilon, 35 male and 35 female BALB/c mice were randomized and put into two groups (n = 15) per sex for each route of administration (4 total groups). Extra mice were used for collection of blank plasma. […] Each time point utilized three mice per group, and each mouse had two blood draws. The blood samples were collected in K2EDTA tubes on ice, centrifuged at 6800g (6 min, 4 °C) to generate plasma samples. The plasma samples were stored below −70 °C until LC–MS/MS analysis. […] After data acquisition, noncompartmental analysis parameters were calculated by Pheonix WinNonlin 7.0.

[5] = Maximum tolerated dose study, oral dosing, 21 days; type: in vivo, severe combined immunodeficient mice
[6] = test system: glutamate-driven respiration in 4T1 cells; assay: Seahorse glutamate-driven respiration in permeabilized 4T1 cells; type: cell-based, murine; conditions: Glu/Mal, candidate compounds 1 μM
Text: as §1, §2

4T1 = assay: Sulforhodamine B cell proliferation inhibition assay, 4T1; type: cell-based, murine; conditions: Mus musculus, 72 h, average ± SEM
Description: as §3

MDA-MB-231 [7] = assay: MTT cell proliferation inhibition assay, MDA-MB-231; type: cell-based; conditions: Homo sapiens, 72 h, 3 days
Description: Confluent cell cultures were treated with trypsin and resuspended at 5 × 10^4 cells/ml. To a 96-well plate, 100 μl of the 5 × 10^4 cells/ml solution were added and allowed to incubate at 37 °C, 5% CO2 for 24 h. Compounds were then added and allowed to incubate for 3 days. […] Following the 4-h incubation with 3-(4,5-dimethylthiazol-2-yl)-2,5-diphenyltetrazolium bromide, 100 μl of SDS (0.1 g/ml, 0.01 N HCl) was added, and 96-well plates were allowed to incubate for an additional 4 h. […] Treatment absorbances are taken as percentages of the average untreated absorbances and plotted against log(concentration) in GraphPad Prism 10 (GraphPad Software, Inc) to generate effective concentration values where 50% of the cells are not proliferating (EC50).

Structure (SMILES): CN(Cc1ccc(C(F)(F)F)cc1)c1ccc2cc(C(=O)O)c(=O)oc2c1.NC(CO)(CO)CO [C5, 1,3-dihydroxy-2-(hydroxymethyl)propan-2-aminium 7-(methyl(4-(trifluoromethyl)benzyl)amino)-2-oxo-2H-chromene-3-carboxylate]
- intracellular lactate accumulation (4T1 cells): potent accumulation of lactate
- toxic dose (acute respiratory effects and lethargy) [1]: 6 mg/kg
- MTD at 7 days ([1]; female, mouse, in vivo, ip, once daily 7 days, read-out: maximum tolerated dose): 5 mg/kg
- effect on succinate-driven respiration [2]: does not alter; also recorded: did not alter
- mouse body weight (67NR tumor): remained stable
- EC50 (MDA-MB-231 [3]): > 1000 µM
- effects on Pyr-driven maximal respiration in MPC-KO lines [4]: largely diminished
- bioavailability (in vivo; both, po, 5 mg/kg): ~100%
- half-life (in vivo; female, iv, 1 mg/kg): 3.15 h
- half-life (in vivo; female, po, 5 mg/kg): 4.41 h
- Vd (in vivo; female, iv, 1 mg/kg): 6.92 L/kg
- clearance (in vivo; female, iv, 1 mg/kg): 26.6 mL/min/kg
- bioavailability (in vivo; female, po, 5 mg/kg): 125%
- half-life (in vivo; male, iv, 1 mg/kg): 3.65 h
- half-life (in vivo; male, po, 5 mg/kg): 4.04 h
- Vd (in vivo; male, iv, 1 mg/kg): 10.2 L/kg
- clearance (in vivo; male, iv, 1 mg/kg): 34.3 mL/min/kg
- bioavailability (in vivo; male, po, 5 mg/kg): 124%
- MTD at 21 days ([5]; female, BALB/c, mouse, in vivo, oral, daily for 21 days): 40 mg/kg
- changes in body weight or behavior ([5]; oral 10, 20, 40 mg/kg daily for 21 days): not any significant changes
- effect on glutamate-driven respiration [6]: does not alter; also recorded: did not alter
- clinical observations after single oral dose (oral 10, 25, and 40 mg/kg, 7 days): no signs of clinical toxicity
- gross pathology, including general cardiotoxicity, after organ resection (oral, end of study): no gross pathology
- EC50 (4T1): 67.9 ± 7.3 µM
- EC50 (MDA-MB-231 [7]): > 1000 µM

Reference: PMC12355554, “Development of novel mitochondrial pyruvate carrier inhibitors for breast cancer treatment” (The Journal of Biological Chemistry, 2025)
